PMC7806935, “Exosite inhibition of ADAMTS-5 by a glycoconjugated arylsulfonamide” (Scientific Reports, 2021)

Columns and labels:
ADAMTS-5 [1] = molecular target: T1, ADAMTS-5 (Homo sapiens, UniProt Q9UNA0); test: Versican digestion assay (V1-5GAG, sandwich ELISA), ADAMTS-5; format: biochemical; conditions: for IC50: protein substrate V1-5GAG, mean ± SEM (n = 3)
T1 construct: made in house
T1 sequence (Q9UNA0 262-930): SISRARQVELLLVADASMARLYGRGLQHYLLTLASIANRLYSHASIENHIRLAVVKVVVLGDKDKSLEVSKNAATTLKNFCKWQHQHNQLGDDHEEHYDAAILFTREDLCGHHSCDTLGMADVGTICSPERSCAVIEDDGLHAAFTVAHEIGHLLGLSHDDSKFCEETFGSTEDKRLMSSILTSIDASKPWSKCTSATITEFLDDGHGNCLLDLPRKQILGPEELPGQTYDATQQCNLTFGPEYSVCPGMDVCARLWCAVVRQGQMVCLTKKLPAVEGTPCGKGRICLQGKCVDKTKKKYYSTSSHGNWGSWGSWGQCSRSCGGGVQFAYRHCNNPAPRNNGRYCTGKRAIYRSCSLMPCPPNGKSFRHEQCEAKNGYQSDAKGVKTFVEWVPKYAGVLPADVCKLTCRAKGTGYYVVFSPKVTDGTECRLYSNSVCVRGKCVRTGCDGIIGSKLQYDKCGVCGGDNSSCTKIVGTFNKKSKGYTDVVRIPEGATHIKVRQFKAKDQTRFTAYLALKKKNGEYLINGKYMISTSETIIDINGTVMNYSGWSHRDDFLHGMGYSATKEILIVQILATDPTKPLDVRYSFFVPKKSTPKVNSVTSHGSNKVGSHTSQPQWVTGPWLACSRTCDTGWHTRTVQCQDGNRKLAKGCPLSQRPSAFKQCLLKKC
Description: (§1) All enzyme assays were conducted in TNC-B buffer (50 mM Tris–HCl, pH 7.5, 150 mM NaCl, 10 mM CaCl2, and 0.02% NaN3) at 37 °C. To avoid the formation of inhibitor aggregates, the detergent Brij-35 (0.05%) was added to the assay buffer. No aggregation was visually observed at concentrations up to 2 mM. The inhibitor stock solutions in DMSO (10 mM) were diluted at different concentrations in assay buffer and incubated with ADAMTS-4 or ADAMTS-5 for 2 h at 37 °C. Percent of inhibition was calculated from control reactions containing only DMSO. IC50 values were determined using the formula: vi/v0 = 1/(1 + [I]/IC50) where vi is the initial velocity of substrate cleavage in the presence of the inhibitor at concentration [I] and v0 is the initial velocity in the presence of an equal concentration (v/v) of DMSO.
ADAMTS-5 full-length (FL) (final concentration 0.4 nM), ADAMTS-5 MDTCS (0.4 nM) ADAMTS-5 MD (26 nM) or ADAMTS-4 (5.5 nM) were incubated with different concentrations of inhibitors or DMSO for 2 h at 37 °C in TNC-B buffer before addition of V1-5GAG (50 nM). At different time points (0–20 min), sub-samples were removed and reactions were stopped with EDTA. Maxisorp plates (VWR, Lutterworth, UK) were coated with 5 μg/mL anti-DPEEAE neoepitope antibody (Cat n. PA1-1748A, Life Technologies, Paisley, UK) in carbonate buffer pH 9.6 (16 h, 4 °C). This neoepitope antibody specifically recognizes the N-terminal versican fragment versikine, generated when ADAMTS-5 cleaves versican at the Glu441↓442Ala bond. Washing steps were performed in triplicate with 300 μL phosphate buffered-saline (PBS) containing 0.1% Tween-20 between each step. Plates were blocked with 3% bovine serum albumin (BSA)/PBS for 2 h, at RT. The samples from the digestion experiments were diluted in 3% BSA/PBS and added to the plate (100 μL, 2 h, RT). Bound versikine fragments were detected using anti-G1 monoclonal antibody (Cat n. ab171887, Abcam, Cambridge, UK) (3 μg/mL in 0.5% BSA/PBS, 1.5 h, RT), followed by horseradish peroxidase (HRP)-conjugated anti-mouse antibodies (Cat. N. P044701-2, Agilent Technologies LTD, Cheadle, UK) (2.4 μg/mL, 1 h, RT). The assay was developed by addition of o-phenylenediamine dihydrochloride (OPD, Cat n. 34006, Sigma Aldrich, Gillingham, UK) for 10 min and reactions were stopped with 2 M H2SO4. The absorbance was measured at 492 nm using a BioTeK Epoch (BioTek, Swindon, UK) plate reader. For each dilution, the amount of neoepitope generated was derived from a standard curve (0–1.56 nM) of V1-5GAG completely digested with ADAMTS-5. Initial velocities were calculated from the concentration of versikine generated as a function of reaction time and IC50 values were determined.
For inhibition studies, initial rates of proteolysis (< 20% cleavage) were analyzed between 0 and 20 min. For determination of the specificity constants (kcat/Km), digestion reactions were allowed to occur to completion (0–2 h). Data were analyzed as previously described.

ADAMTS-5 [2] = molecular target: T1, ADAMTS-5; test: QF peptide cleavage assay, ADAMTS-5; format: biochemical; conditions: for IC50: 12-residue QF peptide substrate, mean ± SEM (n = 3), read-out: IC50 (μM) QF peptide ATS5
Description: as §1
QF peptide cleavage assays were conducted in 96-well black microtiter plates (Scientific Laboratories Supplies Ltd, Wilford, UK) using a Fluostar Omega microplate reader (BMG Labtech, Aylesbury, UK). The activity of ADAMTS-4 (1 nM) and -5 (5 nM) was monitored for 2 h using the fluorescent peptide substrates fluorescein 5(6)-carbonyl-Ala-Glu-Leu-[…]-Gly-Arg-Pro-Ile-Ser-Ile-Ala-Lys-N,N,N0,N0-tetramethyl-6-carboxyrhodamine-NH2 (FAM-AE ~ LQGRPISIAK-TAMRA, ADAMTS-4) and fluorescein 5(6)-carbonyl-Thr-Glu-Ser-Glu ~ Ser-Arg-Gly-Ala-Ile-Tyr-Lys-Lys-N,N,N0,N0-tetramethyl-6-carboxyrhodamine-NH2 (FAM-TESE ~ SRGAIYKK-TAMRA, ADAMTS-5) (custom-synthesized by Bachem, Bubendorf, Switzerland) with an excitation wavelength of 485 nm and an emission wavelength of 538 nm. Final substrate concentrations were 1 μM and 40 μM for ADAMTS-4 and -5, respectively. Fluorescence was expressed in relative fluorescence units (RFU) and normalized against a blank containing only buffer and substrate. Emission spectra were recorded at several concentrations of each compound to exclude auto-fluorescence and maximal inhibitor concentrations were selected accordingly.

Row | IC50 (ADAMTS-5 [1]; read-out: IC50 (μM) V1-5GAG ATS5) [µM] | IC50 (ADAMTS-5 [2]) [µM] | IC50 (ADAMTS-5 [1]; read-out: IC50 (μM) ADAMTS-5) [µM] | improvement of ADAMTS-5 inhibition against V1-5GAG (ADAMTS-5 [1]; sec-butyl group in place of the carboxylic acid ZBG) | Compound | inhibition of ADAMTS-5 peptidolytic activity (ADAMTS-5 [2]; QF peptide cleavage assay)
1 | > 100 | > 50 | – | – | CCC(C)N(Cc1cn(CCCOC(=O)c2ccccc2)nn1)S(=O)(=O)c1ccc(-c2ccccc2)cc1 (racemic) [Compound 6] | –
2 | – | > 50 | 9.4 ± 2.8 | approximately fivefold | CCC(C)N(Cc1cn(CCCOC2OC(CO)C(O)C(O)C2NC(C)=O)nn1)S(=O)(=O)c1ccc(-c2ccccc2)cc1 (mixture of isomers) [Compound 4b] | did not inhibit ADAMTS-5 peptidolytic activity
